Earlier results, collected in patent US20140135284A1, “COMPOSITION OF AQUEOUS BUFFER SOLUTION FOR THE TREATMENT OF CELLULAR ENVIRONMENT AND ION CHANNELS AND METHODS FOR USING SAME” (priority 2007, published 2014).

Test system: inflammation
Settings: acid species studied, small reductions in pH

## Cl [Hydrochloric acid]
  effect on inflammation: upregulated inflammation

## CC(O)C(=O)O (centres unmarked) [Lactic acid]
  effect on inflammation: effective anti-inflammatory
